Among the data in patent US9012443B2 (Amgen Inc., priority 2011, dated 2015) are IC50 values, retold here.

The target in series [1] is Nav 1.7 (Homo sapiens (Human), UniProt Q15858). The experiment in a line: Nav 1.7 in vitro PX assay (PatchXpress whole cell voltage clamp). It is filed as cell-based. The settings on record: 293 cells, human Nav1.7, partially inactivated state; read-out: Nav1.7 PX IC50 IP. The method, boiled down:
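Partially inactivated channel state (holding potential for 20–50% inactivation) probed in human Nav1.7-transfected 293 cells by automated patch clamp, test pulse −10 mV for 20 msec.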

Series [2] deals with Nav 1.5 (Homo sapiens (Human), UniProt Q14524). Description: Nav 1.5 in vitro PX assay (PatchXpress whole cell voltage clamp). Format: cell-based. As for the experimental part:
Nav 1.5 In Vitro PX Assay
293 cells stably transfected with Nav 1.5 were recorded in whole cell voltage clamp mode with the PatchXpress automated electrophysiology system according the manufacturer's specifications (Molecular Devices, LLC, Sunnyvale, Calif.). Cells were held at a holding potential of −50 mV to inactivate sodium channels. To elicit sodium currents the voltage was changed to −120 mV to recover a portion of the channels, followed by delivery of test pulses of 20 msec duration to 0 mV, at 0.1 Hz. A single concentration of test compound was applied to cells for a duration of 5 minutes. Peak sodium current was measured at the end of the compound addition period to determine percent inhibition. A minimum of two cells were tested per concentration. IC50 curves were fitted to percent inhibition as a function of concentration.

Setting [3] is: 293 cells stably transfected with Nav 1.5, second part of table, read-out: Nav1.5 PX IC50.

Where two headings read alike, the source gives them in different places. Bounds are passed on as bounds.

Nav 1.5, sequence (Q14524 whole entry): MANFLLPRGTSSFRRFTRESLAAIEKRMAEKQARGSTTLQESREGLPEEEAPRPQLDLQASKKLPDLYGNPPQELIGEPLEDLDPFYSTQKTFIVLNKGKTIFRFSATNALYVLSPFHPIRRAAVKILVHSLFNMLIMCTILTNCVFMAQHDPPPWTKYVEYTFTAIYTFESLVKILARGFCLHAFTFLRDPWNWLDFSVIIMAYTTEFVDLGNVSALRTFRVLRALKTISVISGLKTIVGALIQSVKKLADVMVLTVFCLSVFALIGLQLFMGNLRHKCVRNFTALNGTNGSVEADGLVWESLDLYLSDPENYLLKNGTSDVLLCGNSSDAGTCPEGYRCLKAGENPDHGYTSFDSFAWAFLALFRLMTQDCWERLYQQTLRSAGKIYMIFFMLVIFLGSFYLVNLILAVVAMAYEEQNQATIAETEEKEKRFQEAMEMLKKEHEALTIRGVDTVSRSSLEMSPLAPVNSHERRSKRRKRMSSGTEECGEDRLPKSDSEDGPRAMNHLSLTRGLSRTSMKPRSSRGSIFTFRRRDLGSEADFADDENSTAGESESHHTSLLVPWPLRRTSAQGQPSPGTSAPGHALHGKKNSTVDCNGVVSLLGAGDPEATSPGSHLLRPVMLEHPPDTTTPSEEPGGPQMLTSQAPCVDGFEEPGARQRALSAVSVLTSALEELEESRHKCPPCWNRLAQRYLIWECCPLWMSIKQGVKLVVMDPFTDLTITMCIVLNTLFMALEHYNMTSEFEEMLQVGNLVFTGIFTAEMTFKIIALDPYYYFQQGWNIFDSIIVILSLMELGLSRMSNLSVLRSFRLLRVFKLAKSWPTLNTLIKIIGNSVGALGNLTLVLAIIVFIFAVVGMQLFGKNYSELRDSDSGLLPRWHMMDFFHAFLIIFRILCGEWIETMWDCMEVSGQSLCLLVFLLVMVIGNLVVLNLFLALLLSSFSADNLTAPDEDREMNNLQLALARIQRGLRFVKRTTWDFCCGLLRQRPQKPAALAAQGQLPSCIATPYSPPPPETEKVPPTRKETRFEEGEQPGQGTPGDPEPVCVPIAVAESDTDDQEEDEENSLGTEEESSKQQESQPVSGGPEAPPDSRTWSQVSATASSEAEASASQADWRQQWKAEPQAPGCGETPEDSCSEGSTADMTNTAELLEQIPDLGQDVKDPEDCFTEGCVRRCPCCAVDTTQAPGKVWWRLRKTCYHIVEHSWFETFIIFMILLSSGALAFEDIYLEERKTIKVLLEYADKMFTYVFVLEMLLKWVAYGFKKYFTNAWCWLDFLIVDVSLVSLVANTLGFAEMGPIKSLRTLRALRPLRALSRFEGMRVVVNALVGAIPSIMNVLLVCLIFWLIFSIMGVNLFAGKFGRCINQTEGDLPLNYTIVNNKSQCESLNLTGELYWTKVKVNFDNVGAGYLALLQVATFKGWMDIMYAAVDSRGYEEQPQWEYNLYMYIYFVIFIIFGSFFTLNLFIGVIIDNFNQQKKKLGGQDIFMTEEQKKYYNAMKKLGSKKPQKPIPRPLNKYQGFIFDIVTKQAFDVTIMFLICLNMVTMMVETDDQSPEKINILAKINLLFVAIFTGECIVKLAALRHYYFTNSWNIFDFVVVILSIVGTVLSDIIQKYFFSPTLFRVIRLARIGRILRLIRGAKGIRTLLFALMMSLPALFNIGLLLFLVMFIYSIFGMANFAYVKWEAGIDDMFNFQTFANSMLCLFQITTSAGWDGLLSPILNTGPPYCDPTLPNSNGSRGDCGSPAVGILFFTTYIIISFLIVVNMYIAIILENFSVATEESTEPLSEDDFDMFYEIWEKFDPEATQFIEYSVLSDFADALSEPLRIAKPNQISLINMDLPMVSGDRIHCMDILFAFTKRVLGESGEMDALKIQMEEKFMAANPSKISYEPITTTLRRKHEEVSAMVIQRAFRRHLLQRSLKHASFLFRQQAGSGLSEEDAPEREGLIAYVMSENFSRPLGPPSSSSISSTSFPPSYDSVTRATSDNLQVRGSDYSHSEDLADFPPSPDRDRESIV
Nav 1.7, sequence (Q15858 whole entry): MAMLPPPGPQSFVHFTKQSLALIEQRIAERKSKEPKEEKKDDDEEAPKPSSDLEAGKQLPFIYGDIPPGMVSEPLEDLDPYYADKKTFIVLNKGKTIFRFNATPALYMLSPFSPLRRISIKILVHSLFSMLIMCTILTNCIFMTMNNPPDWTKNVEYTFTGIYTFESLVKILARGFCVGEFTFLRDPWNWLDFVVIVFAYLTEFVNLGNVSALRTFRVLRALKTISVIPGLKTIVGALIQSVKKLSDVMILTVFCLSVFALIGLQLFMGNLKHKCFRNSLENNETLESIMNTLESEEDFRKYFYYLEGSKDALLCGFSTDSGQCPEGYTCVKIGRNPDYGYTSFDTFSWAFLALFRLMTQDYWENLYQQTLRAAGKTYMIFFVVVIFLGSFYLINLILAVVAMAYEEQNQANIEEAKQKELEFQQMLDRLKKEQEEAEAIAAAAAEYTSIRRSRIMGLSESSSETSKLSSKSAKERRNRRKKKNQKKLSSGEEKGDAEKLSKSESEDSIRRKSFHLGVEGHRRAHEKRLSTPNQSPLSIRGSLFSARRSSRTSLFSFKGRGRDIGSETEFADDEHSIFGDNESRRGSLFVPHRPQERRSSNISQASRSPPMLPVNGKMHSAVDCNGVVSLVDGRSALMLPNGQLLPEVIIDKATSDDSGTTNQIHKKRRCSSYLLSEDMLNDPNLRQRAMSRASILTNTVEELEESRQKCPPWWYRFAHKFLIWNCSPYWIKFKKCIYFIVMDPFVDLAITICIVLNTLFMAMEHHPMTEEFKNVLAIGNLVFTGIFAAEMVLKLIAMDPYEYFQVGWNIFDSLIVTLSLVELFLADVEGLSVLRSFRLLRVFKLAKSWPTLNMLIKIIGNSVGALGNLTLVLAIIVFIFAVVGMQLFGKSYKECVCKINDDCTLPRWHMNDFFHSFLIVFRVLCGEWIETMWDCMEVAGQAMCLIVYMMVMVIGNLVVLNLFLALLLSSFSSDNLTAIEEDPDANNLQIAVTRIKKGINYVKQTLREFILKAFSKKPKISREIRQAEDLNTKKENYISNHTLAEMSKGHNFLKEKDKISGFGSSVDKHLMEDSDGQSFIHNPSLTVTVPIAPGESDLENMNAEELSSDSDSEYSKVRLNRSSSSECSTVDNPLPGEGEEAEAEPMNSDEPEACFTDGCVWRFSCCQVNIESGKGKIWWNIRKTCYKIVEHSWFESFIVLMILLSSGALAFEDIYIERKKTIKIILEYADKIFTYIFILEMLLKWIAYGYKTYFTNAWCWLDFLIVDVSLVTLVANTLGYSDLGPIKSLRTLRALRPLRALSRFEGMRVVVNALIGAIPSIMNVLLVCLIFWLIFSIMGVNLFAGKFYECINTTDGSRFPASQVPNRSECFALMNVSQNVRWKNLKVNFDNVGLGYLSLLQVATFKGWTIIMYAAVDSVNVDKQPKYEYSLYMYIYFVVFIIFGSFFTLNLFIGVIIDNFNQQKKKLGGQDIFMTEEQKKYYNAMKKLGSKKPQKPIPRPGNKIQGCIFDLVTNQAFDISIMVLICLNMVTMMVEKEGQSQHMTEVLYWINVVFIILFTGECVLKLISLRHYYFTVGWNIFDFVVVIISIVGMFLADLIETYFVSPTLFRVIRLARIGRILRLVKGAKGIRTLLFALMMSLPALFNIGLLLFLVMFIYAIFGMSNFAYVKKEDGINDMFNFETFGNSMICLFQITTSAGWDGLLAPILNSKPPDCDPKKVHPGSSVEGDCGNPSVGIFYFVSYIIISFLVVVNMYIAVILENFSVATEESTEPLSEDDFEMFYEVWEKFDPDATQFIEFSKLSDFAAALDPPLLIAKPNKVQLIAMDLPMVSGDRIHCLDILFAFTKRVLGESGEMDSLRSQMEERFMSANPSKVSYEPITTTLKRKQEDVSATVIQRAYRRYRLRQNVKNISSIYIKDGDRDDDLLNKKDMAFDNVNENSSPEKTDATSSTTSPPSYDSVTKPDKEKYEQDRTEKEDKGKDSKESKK

By IC50 is commonly meant the concentration that gives 50% inhibition. Take `COc1cc(C(F)F)c(Cl)cc1-c1ncnc2cc(S(=O)(=O)Nc3nccs3)ccc12` [Example 270, 4-(5-CHLORO-4-(DIFLUOROMETHYL)-2-METHOXYPHENYL)-N-(THIAZOL-2-YL)QUINAZOLINE-7-SULFONAMIDE]: the IC50 in series [1] came out at 150 nM; in series [2] (setting [3]), 7440 nM.

In the case of `COc1cc(-c2cc(F)cc(F)c2)ccc1-c1nccc2cc(S(=O)(=O)Nc3ccnc(C)n3)ccc12` [Example 370, 1-(3′,5′-DIFLUORO-3-METHOXY-[1,1′-BIPHENYL]-4-YL)-N-(2-METHYLPYRIMIDIN-4-YL)ISOQUINOLINE-6-SULFONAMIDE], the results for the IC50 in series [1] and in series [2] (setting [3]) were 813 nM and over 30000 nM, respectively.

On to `COc1cc(-c2ccc(Cl)c(C)c2)ccc1-c1nccc2cc(S(=O)(=O)Nc3ccncn3)ccc12` [Example 493, 1-(4′-CHLORO-3-METHOXY-3′-METHYL-[1,1′-BIPHENYL]-4-YL)-N-(PYRIMIDIN-4-YL)ISOQUINOLINE-6-SULFONAMIDE], for which the results for the IC50 in series [1] and in series [2] (setting [3]) were 86 nM and over 30000 nM, respectively.

Regarding `COc1cc(-c2cccc(F)c2)ccc1-c1nccc2cc(S(=O)(=O)Nc3ncns3)ccc12` [Example 369, 1-(3′-FLUORO-3-METHOXY-[1,1′-BIPHENYL]-4-YL)-N-(1,2,4-THIADIAZOL-5-YL)ISOQUINOLINE-6-SULFONAMIDE], the 50% inhibitory concentration (IC50) in series [1] is 58 nM; in series [2] (setting [3]), over 30000 nM.

With `COc1ccc(-c2cccc(F)c2)cc1-c1ccnc2cc(S(=O)(=O)Nc3ccncn3)ccc12` [Example 321, 4-(3′-FLUORO-4-METHOXY-[1,1′-BIPHENYL]-3-YL)-N-(PYRIMIDIN-4-YL)QUINOLINE-7-SULFONAMIDE], the IC50 in series [1] is 251 nM; in series [2] (setting [3]) it was over 30000 nM.

Turning to `COc1cc(-c2ccc(C)cc2)ccc1-c1nccc2cc(S(=O)(=O)Nc3ccncn3)ccc12` [Example 443, 1-(3-METHOXY-4′-METHYL-[1,1′-BIPHENYL]-4-YL)-N-(PYRIMIDIN-4-YL)ISOQUINOLINE-6-SULFONAMIDE], the IC50 in series [1] is 280 nM; in series [2] (setting [3]), over 30000 nM.

Take `COc1cccc(-c2ccc(-c3nccc4cc(S(=O)(=O)Nc5ccncn5)ccc34)c(OC)c2)c1` [Example 467, 1-(3,3′-DIMETHOXY-[1,1′-BIPHENYL]-4-YL)-N-(PYRIMIDIN-4-YL)ISOQUINOLINE-6-SULFONAMIDE]: the figures for the IC50 in series [1] and in series [2] (setting [3]) were 204 nM and over 30000 nM, respectively.

For `COc1cc(C(F)F)ccc1-c1nc(C)nc2cc(S(=O)(=O)Nc3nccs3)ccc12` [Example 515, 4-(4-(difluoromethyl)-2-methoxyphenyl)-2-methyl-N-(thiazol-2-yl)quinazoline-7-sulfonamide], the IC50 in series [1] is 478 nM; in series [2] (setting [3]), over 30000 nM.

As for `COc1cc(C(F)(F)F)ccc1-c1nc(C)nc2cc(S(=O)(=O)Nc3nccs3)ccc12` [Example 510, 4-(2-METHOXY-4-(TRIFLUOROMETHYL)PHENYL)-2-METHYL-N-(THIAZOL-2-YL)QUINAZOLINE-7-SULFONAMIDE], the figures for the IC50 in series [1] and in series [2] (setting [3]) were 464 nM and over 30000 nM, respectively.

Consider `COc1cc(C(F)F)c(F)cc1-c1ncnc2cc(S(=O)(=O)Nc3cscn3)ccc12` [Example 513, 4-(4-(difluoromethyl)-5-fluoro-2-methoxyphenyl)-N-(thiazol-4-yl)quinazoline-7-sulfonamide], for which the IC50 in series [1] is 783 nM; in series [2] (setting [3]), over 30000 nM.

`COc1cc(C(F)(F)F)ccc1-c1n[nH]c(=O)c2cc(S(=O)(=O)Nc3nccs3)ccc12` [Example 293, 1-(2-METHOXY-4-(TRIFLUOROMETHYL)PHENYL)-4-OXO-N-(THIAZOL-2-YL)-3,4-DIHYDROPHTHALAZINE-6-SULFONAMIDE]: the IC50 in series [1] is 150 nM; in series [2] (setting [3]), over 30000 nM.

`COc1cc(-c2cccc(F)c2)ccc1-c1ncnc2cc(S(=O)(=O)Nc3nncs3)ccc12` [Example 529, 4-(3′-FLUORO-3-METHOXY-[1,1′-BIPHENYL]-4-YL)-N-(1,3,4-THIADIAZOL-2-YL)QUINAZOLINE-7-SULFONAMIDE]: the IC50 in series [1] was 258 nM; in series [2] (setting [3]), over 30000 nM.

Regarding `COc1cc(-c2cccc(F)c2)c(C#N)cc1-c1nccc2cc(S(=O)(=O)Nc3ccon3)ccc12` [Example 342, 1-(2-CYANO-3′-FLUORO-5-METHOXY-[1,1′-BIPHENYL]-4-YL)-N-(ISOXAZOL-3-YL)ISOQUINOLINE-6-SULFONAMIDE], the IC50 in series [1] is 122 nM; in series [2] (setting [3]), over 30000 nM.

Consider `COc1cc(-c2cc(F)cc(Cl)c2)ccc1-c1nccc2cc(S(=O)(=O)Nc3ccncn3)ccc12` [Example 491, 1-(3′-CHLORO-5′-FLUORO-3-METHOXY-[1,1′-BIPHENYL]-4-YL)-N-(PYRIMIDIN-4-YL)ISOQUINOLINE-6-SULFONAMIDE], for which the figures for the IC50 in series [1] and in series [2] (setting [3]) were 101 nM and over 30000 nM, respectively.

Take `COc1cc(-c2cccc(F)c2)c(Cl)cc1-c1ncnc2cc(S(=O)(=O)Nc3nncs3)ccc12` [Example 522, 4-(2-CHLORO-3′-FLUORO-5-METHOXY-[1,1′-BIPHENYL]-4-YL)-N-(1,3,4-THIADIAZOL-2-YL)QUINAZOLINE-7-SULFONAMIDE]: the results for the IC50 in series [1] and in series [2] (setting [3]) were 34 nM and over 30000 nM, respectively.

`COc1ccc(-c2cccc(F)c2)cc1-c1nccc2cc(S(=O)(=O)Nc3ccncn3)ccc12` [Example 348, 1-(3′-FLUORO-4-METHOXY-[1,1′-BIPHENYL]-3-YL)-N-(PYRIMIDIN-4-YL)ISOQUINOLINE-6-SULFONAMIDE]: the figures for the IC50 in series [1] and in series [2] (setting [3]) were 102 nM and over 30000 nM, respectively.

In the case of `COc1cc(-c2c(F)cccc2F)ccc1-c1nccc2cc(S(=O)(=O)Nc3ccncn3)ccc12` [Example 447, 1-(2′,6′-DIFLUORO-3-METHOXY-[1,1′-BIPHENYL]-4-YL)-N-(PYRIMIDIN-4-YL)ISOQUINOLINE-6-SULFONAMIDE], the half-inhibitory concentration (IC50) in series [1] is 237 nM; in series [2] (setting [3]) it was over 30000 nM.

With `COc1cc(C(F)(F)F)ccc1-c1nccc2cc(S(=O)(=O)Nc3nc(Cl)cs3)ccc12` [Example 419, N-(4-CHLOROTHIAZOL-2-YL)-1-(2-METHOXY-4-(TRIFLUOROMETHYL)PHENYL)ISOQUINOLINE-6-SULFONAMIDE], the 50% inhibitory concentration (IC50) in series [1] was 272 nM; in series [2] (setting [3]), over 30000 nM.

Consider `COc1nc(-c2cccc(F)c2)ccc1-c1nccc2cc(S(=O)(=O)Nc3ccncn3)ccc12` [Example 363, 1-(6-(3-FLUOROPHENYL)-2-METHOXYPYRIDIN-3-YL)-N-(PYRIMIDIN-4-YL)ISOQUINOLINE-6-SULFONAMIDE], for which the IC50 in series [1] was 540 nM; in series [2] (setting [3]), over 30000 nM.

For the molecule `COc1ccc(Cl)cc1-c1n[nH]c(=O)c2cc(S(=O)(=O)Nc3nccs3)ccc12` [Example 501, 1-(5-CHLORO-2-METHOXYPHENYL)-4-OXO-N-(THIAZOL-2-YL)-3,4-DIHYDROPHTHALAZINE-6-SULFONAMIDE], the IC50 is 124 nM in series [1] and over 30000 nM in series [2].

Turning to `COc1cc(-c2cccc(F)c2)c(C#N)cc1-c1nccc2cc(S(=O)(=O)Nc3nncs3)ccc12` [Example 341, 1-(2-CYANO-3′-FLUORO-5-METHOXY-[1,1′-BIPHENYL]-4-YL)-N-(1,3,4-THIADIAZOL-2-YL)ISOQUINOLINE-6-SULFONAMIDE], the results for the IC50 in series [1] and in series [2] (setting [3]) were 69 nM and over 30000 nM, respectively.

For the molecule `COc1cc(-c2cccc(F)c2)ccc1-c1ncnc2cc(S(=O)(=O)Nc3ccncn3)ccc12` [Example 527, 4-(3′-FLUORO-3-METHOXY-[1,1′-BIPHENYL]-4-YL)-N-(PYRIMIDIN-4-YL)QUINAZOLINE-7-SULFONAMIDE], the IC50 was 252 nM in series [1] and over 30000 nM in series [2] (setting [3]).

Regarding `COc1cc(Cl)ccc1-c1nccc2cc(S(=O)(=O)Nc3ncns3)ccc12` [Example 368, 1-(4-CHLORO-2-METHOXYPHENYL)-N-(1,2,4-THIADIAZOL-5-YL)ISOQUINOLINE-6-SULFONAMIDE], the IC50 in series [1] is 122 nM; in series [2] (setting [3]), over 30000 nM.

For `COc1ccc(-c2cccc(F)c2)cc1-c1n[nH]c(=O)c2cc(S(=O)(=O)Nc3ccncn3)ccc12` [Example 509, 1-(3′-FLUORO-4-METHOXY-[1,1′-BIPHENYL]-3-YL)-4-OXO-N-(PYRIMIDIN-4-YL)-3,4-DIHYDROPHTHALAZINE-6-SULFONAMIDE], the values for the IC50 in series [1] and in series [2] (setting [3]) were 218 nM and over 30000 nM, respectively.

`COc1cc(-c2ccc(F)c(Cl)c2)ccc1-c1nccc2cc(S(=O)(=O)Nc3ccncn3)ccc12` [Example 490, 1-(3′-CHLORO-4′-FLUORO-3-METHOXY-[1,1′-BIPHENYL]-4-YL)-N-(PYRIMIDIN-4-YL)ISOQUINOLINE-6-SULFONAMIDE]: the values for the half-maximal inhibitory concentration (IC50) in series [1] and in series [2] (setting [3]) were 62 nM and over 30000 nM, respectively.

Consider `COc1cc(C(F)F)c(F)cc1-c1nc(C)nc2cc(S(=O)(=O)Nc3nccs3)ccc12` [Example 514, 4-(4-(difluoromethyl)-5-fluoro-2-methoxyphenyl)-2-methyl-N-(thiazol-2-yl)quinazoline-7-sulfonamide], for which the IC50 in series [1] was 383 nM; in series [2] (setting [3]), over 30000 nM.

As to `COc1cc(C(F)(F)F)ccc1-c1ncc(O)c2cc(S(=O)(=O)Nc3nccs3)ccc12` [Example 232, 4-HYDROXY-1-(2-METHOXY-4-(TRIFLUOROMETHYL)PHENYL)-N-(THIAZOL-2-YL)ISOQUINOLINE-6-SULFONAMIDE], the IC50 in series [1] was found to be 380 nM; in series [2] (setting [3]), 20400 nM.

Consider `COc1ccc(Cl)cc1-c1n[nH]c(=O)c2cc(S(=O)(=O)Nc3ncc(F)s3)ccc12` [Example 507, 1-(5-CHLORO-2-METHOXYPHENYL)-N-(5-FLUOROTHIAZOL-2-YL)-4-OXO-3,4-DIHYDROPHTHALAZINE-6-SULFONAMIDE], for which the IC50 is 177 nM in series [1] and over 30000 nM in series [2] (setting [3]).

For `COc1cc(-c2cc(C)cc(C)c2)ccc1-c1nccc2cc(S(=O)(=O)Nc3ccncn3)ccc12` [Example 470], the IC50 in series [1] is 180 nM; in series [2] (setting [3]), over 30000 nM.
